Measured values from patent US6359008B1, “Acylated aminoacids for increasing the uptake of selected substances by organisms” (Lovesgrove Research Limited, priority 1998, dated 2002).

How the values were obtained:
[1] = tested on: Rainbow Trout; experiment: Field trial of Corbinol as pigment adsorption enhancer in fish feed; type: in vivo
Method: A field trial was conducted at a fish farm facility adjacent to the Rheidol hydroelectric station to establish a preliminary indication of the efficacy of Corbinol comprising 75 g palmitoylaminoproprionic acid with 925 g of silica talc carrier as a pigment adsorption enhancer. Approximately 250 Rainbow Trout were divided into two groups and held in separate tanks each 4 m×4 m×1 m. The fish were hand fed for a duration of 4 weeks, the diets for the two groups being: Control: Mainstream Trout Hi-Performance 40 Treated: Mainstream Trout Hi-Performance+Corbinol (1 kg/tonne) At the end of the trial 100 farm fish from each group were removed and individually weighed. Equal levels of flesh samples were bulked together forming 10 groups of 10 for both the control and treated diets. HPLC analysis was conducted using a Merck-Hitachi L-4250 UV-Vis detector following an isocratic method referred to in a Roche Ltd publication.

[2] = Heat stability of the compound; type: physicochemical
From the text: The high polar head group appears to provide the bio-activity of the compound without having to incorporate a phosphonic group therein.

CCCCCCCCCCCCCCCC(=O)NC(C)C(=O)O (centres unmarked) [2-palmitoylaminoproprionic acid]
uptake of selected compounds, in particular pigments, in organisms such as fish [1]: increase the uptake of selected compounds | heat stable to [2]: approximately 130 °C
